According to US12233081B2, “Hygromycin a compounds and methods of treating spirochete diseases” (priority 2018, dated 2025):
In brackets after ≈: the same amount, converted by molar mass.

What was measured:
P. aeruginosa = assay: microbroth dilution MIC; type: cell-based; settings: Pseudomonas aeruginosa
Source text: (§1) AH MIC testing of bacteria followed the Clinical and Laboratory Standards Institute (CLSI) guidelines for antimicrobial testing of aerobic, bacteria (Methods for Dilution Antimicrobial Susceptibility Tests for Bacteria that Grow Aerobically; Approved Standard—Tenth Edition, M07-A10; Performance Standards for Antimicrobial Susceptibility Testing; Twenty-fifth Informational Supplement, M100-S25), and guidelines for antimicrobial testing of anaerobic bacteria (Methods for Antimicrobial Susceptibility Testing of Anaerobic Bacteria, 8th Edition. M11-A8). Compounds of the invention can also be tested for activity as described herein.
(§2) Briefly, the microbroth dilution MIC method was used to quantitatively measure the in vitro antibacterial activity of hygromycin A against the given bacterial isolates shown in the table below. S. aureus, E. coli and P. aeruginosa were grown in cation-adjusted Mueller-Hinton broth, anaerobes were grown in Schaedler Anaerobe Media, Borrelia species were grown in BSK-II medium. Bacteria from liquid cultures were diluted into the assay plate to achieve 5×10^5 CFU/mL. Assays plates were prepared by 2-fold dilution of compound across the plate and included a positive growth control. […] Borrelia species were incubated in a microaerophilic chamber at 34° C. for 5-7 days and scored visually for medium color change from pink to yellow of the phenol red present in the medium. The lowest concentration of antibiotics that pre vented color change was interpreted, as the MIC.

Borrelia turcica = assay: microbroth dilution MIC; type: cell-based
Source text: as §1, §2

Lactobacillus reuteri = assay: microbroth dilution MIC; type: cell-based; settings: Limosilactobacillus reuteri
Source text: as §1, §2

Borrelia garinii = assay: microbroth dilution MIC; type: cell-based; settings: Borreliella garinii
Source text: as §1, §2

E. coli = assay: microbroth dilution MIC; type: cell-based; settings: Escherichia coli
Source text: as §1, §2

S. aureus = assay: microbroth dilution MIC; type: cell-based; settings: Staphylococcus aureus
Source text: as §1, §2

Bacteroides fragilis = assay: microbroth dilution MIC; type: cell-based
Source text: as §1, §2

Borrelia bavariensis = assay: microbroth dilution MIC; type: cell-based; settings: Borreliella bavariensis
Source text: as §1, §2

Enterococcus faecalis = assay: microbroth dilution MIC; type: cell-based
Source text: as §1, §2

Borrelia burgdorferi = assay: microbroth dilution MIC; type: cell-based; settings: Borreliella burgdorferi
Source text: as §1, §2

Bifidobacterium longum = assay: microbroth dilution MIC; type: cell-based
Source text: as §1, §2

Borrelia afzelii = assay: microbroth dilution MIC; type: cell-based; settings: Borreliella afzelii
Source text: as §1, §2

gut microbiome = gut microbiome 16S rRNA sequencing of stool of infected, treated mice; settings: for Bacteroidaceae change in percent relative abundance / Streptococcaceae change in percent relative abundance: 50 mg/kg
[1] = IP 50 mg/kg every 12 hours for 5 days
[2] = oral 50 mg/kg every 12 hours for 5 days
[3] = oral 50 mg/kg every 12 hours for 5 days, listed as Hyg

CC(=O)[C@H]1O[C@@H](Oc2ccc(/C=C(\C)C(=O)N[C@@H]3[C@H](O)[C@@H](O)[C@H]4OCO[C@H]4[C@@H]3O)cc2O)[C@@H](O)[C@@H]1O [Hygromycin A]
MIC (P. aeruginosa): > 1000 µg/mL | MIC (Borrelia turcica): 0.25 µg/mL (≈ 0.489 µM) | MIC (Lactobacillus reuteri): 32 µg/mL (≈ 62.6 µM) | MIC (Borrelia garinii): 0.25 µg/mL (≈ 0.489 µM) | MIC (E. coli): 1000 µg/mL (≈ 1960 µM) | MIC (S. aureus): 32 µg/mL (≈ 62.6 µM) | MIC (Bacteroides fragilis): 128 µg/mL (≈ 250 µM) | MIC (Borrelia bavariensis): 0.25 µg/mL (≈ 0.489 µM) | MIC (Enterococcus faecalis): 128 µg/mL (≈ 250 µM) | MIC (Borrelia burgdorferi): 0.12 µg/mL (≈ 0.235 µM) | MIC (Bifidobacterium longum): 8 µg/mL (≈ 15.6 µM) | MIC (Borrelia afzelii): 0.25 µg/mL (≈ 0.489 µM) | Brucellaceae change in percent relative abundance (gut microbiome; [1]): 0.000% | Francisellaceae change in percent relative abundance (gut microbiome; [1]): −0.001% | Aerococcaceae change in percent relative abundance (gut microbiome; [2]): 0.000% | Anaerolineaceae change in percent relative abundance (gut microbiome; [2]): 0.000% | Anaeroplasmataceae change in percent relative abundance (gut microbiome; [2]): −0.016% | Anaplasmataceae change in percent relative abundance (gut microbiome; [2]): 0.000% | Aspergillaceae change in percent relative abundance (gut microbiome; [2]): 0.000% | Asteraceae change in percent relative abundance (gut microbiome; [2]): 0.000% | Bacillaceae change in percent relative abundance (gut microbiome; [2]): −0.009% | Bacillales change in percent relative abundance (gut microbiome; [2]): −0.092% | Bifidobacteriaceae change in percent relative abundance (gut microbiome; [2]): 0.013% | Brucellaceae change in percent relative abundance (gut microbiome; [2]): 0.000% | Camobacteriaceae change in percent relative abundance (gut microbiome; [2]): 0.005% | Chitinophagaceae change in percent relative abundance (gut microbiome; [2]): 0.000% | Christensenellaceae change in percent relative abundance (gut microbiome; [2]): 0.000% | Clostridiaceae change in percent relative abundance (gut microbiome; [2]): −5.257% | Clostridiales change in percent relative abundance (gut microbiome; [2]): −0.174% | Clostridiales family xi. incertae sedis change in percent relative abundance (gut microbiome; [2]): −0.032% | Clostridiales family xiii. incertae sedis change in percent relative abundance (gut microbiome; [2]): −0.007% | Coriobacteriaceae change in percent relative abundance (gut microbiome; [2]): −0.038% | Corynebacteriaceae change in percent relative abundance (gut microbiome; [2]): 0.000% | Cytophagaceae change in percent relative abundance (gut microbiome; [2]): −0.001% | Deferribacteraceae change in percent relative abundance (gut microbiome; [2]): −1.462% | Defluviitaleaceae change in percent relative abundance (gut microbiome; [2]): −0.002% | Desulfobacteraceae change in percent relative abundance (gut microbiome; [2]): −0.001% | Enterobacteriaceae change in percent relative abundance (gut microbiome; [2]): −0.026% | Enterococcaceae change in percent relative abundance (gut microbiome; [2]): 6.546% | Erysipelotrichaceae change in percent relative abundance (gut microbiome; [2]): 1.506% | Eubacteriaceae change in percent relative abundance (gut microbiome; [2]): −6.405% | Fabaceae change in percent relative abundance (gut microbiome; [2]): 0.000% | Flavobacteriaceae change in percent relative abundance (gut microbiome; [2]): −0.001% | Francisellaceae change in percent relative abundance (gut microbiome; [2]): 0.000% | Fusobacteriaceae change in percent relative abundance (gut microbiome; [2]): 0.000% | Gammaproteobacteria change in percent relative abundance (gut microbiome; [2]): −0.025% | Gloeobacteraceae change in percent relative abundance (gut microbiome; [2]): −0.013% | Gracilibacteraceae change in percent relative abundance (gut microbiome; [2]): −0.072% | Halomonadaceae change in percent relative abundance (gut microbiome; [2]): 0.000% | Hylidae change in percent relative abundance (gut microbiome; [2]): 0.000% | Kopriimonadaceae change in percent relative abundance (gut microbiome; [2]): 0.000% | Lachnospiraceae change in percent relative abundance (gut microbiome; [2]): −8.372% | Lactobacillaceae change in percent relative abundance (gut microbiome; [2]): 22.074% | Leuconostocaceae change in percent relative abundance (gut microbiome; [2]): 0.000% | Methylobacteriaceae change in percent relative abundance (gut microbiome; [2]): 0.000% | Microbacteriaceae change in percent relative abundance (gut microbiome; [2]): 0.000% | Mucoraceae change in percent relative abundance (gut microbiome; [2]): 0.000% | Nostocaceae change in percent relative abundance (gut microbiome; [2]): 0.000% | Onagraceae change in percent relative abundance (gut microbiome; [2]): 0.000% | Oscillatoriales change in percent relative abundance (gut microbiome; [2]): 0.001% | Oscillospiraceae change in percent relative abundance (gut microbiome; [2]): −0.009% | Paenibacillaceae change in percent relative abundance (gut microbiome; [2]): −0.002% | Pasteurellaceae change in percent relative abundance (gut microbiome; [2]): 0.000% | Pelobacteraceae change in percent relative abundance (gut microbiome; [2]): 0.000% | Peptococcaceae change in percent relative abundance (gut microbiome; [2]): −0.835% | Peptoniphilaceae change in percent relative abundance (gut microbiome; [2]): 0.000% | Peptostreptococcaceae change in percent relative abundance (gut microbiome; [2]): −0.095% | Physalacriaceae change in percent relative abundance (gut microbiome; [2]): 0.000% | Poaceae change in percent relative abundance (gut microbiome; [2]): 0.007% | Polyangiaceae change in percent relative abundance (gut microbiome; [2]): 0.000% | Porphyromonadaceae change in percent relative abundance (gut microbiome; [2]): −23.435% | Prevotellaceae change in percent relative abundance (gut microbiome; [2]): −0.285% | Pseudomonadaceae change in percent relative abundance (gut microbiome; [2]): 0.000% | Rhizobiaceae change in percent relative abundance (gut microbiome; [2]): 0.000% | Rhodobacteraceae change in percent relative abundance (gut microbiome; [2]): 0.000% | Rikenellaceae change in percent relative abundance (gut microbiome; [2]): −4.391% | Ruminococcaceae change in percent relative abundance (gut microbiome; [2]): −1.494% | Sphingomonadaceae change in percent relative abundance (gut microbiome; [2]): 0.000% | Spirochaetaceae change in percent relative abundance (gut microbiome; [2]): −0.086% | Spiroplasmataceae change in percent relative abundance (gut microbiome; [2]): −0.093% | Staphylococcaceae change in percent relative abundance (gut microbiome; [2]): 0.001% | Thermoanaerobacteraceae change in percent relative abundance (gut microbiome; [2]): −0.010% | Veillonellaceae change in percent relative abundance (gut microbiome; [2]): 0.002% | Verrucomicrobiaceae change in percent relative abundance (gut microbiome; [2]): −0.017% | Xanthomonadaceae change in percent relative abundance (gut microbiome; [2]): 0.000% | increases in Enterococcaceae or Enterobacteriaceae (gut microbiome; [2]): did not lead to increases | mice that maintained Bacteroidaceae (gut microbiome; [2]): 1/5 | mice with decreased Bacteroidaceae (gut microbiome; [2]): 3/5 | mice with increased Bacteroidaceae (gut microbiome; [2]): 1/5 | Bacteroidaceae change in percent relative abundance (gut microbiome; [2]): −8.5% | Streptococcaceae change in percent relative abundance (gut microbiome; [2]): 31.09% | Bacteroidaceae change in percent relative abundance (gut microbiome; [3]): −8.462% | Streptococcaceae change in percent relative abundance (gut microbiome; [3]): 31.098%
